Values after ≈ are worked out from the molar mass of the structure shown.
Assays:
Assay in all cases: ≥ marks a high value that may be exact or a test limit, other limits are often not marked, values filed in µg/mL are converted to µM
Escherichia coli JM109 = tested on: Escherichia coli JM109
[1] = tested on: Staphylococcus aureus ATCC 6538P
Staphylococcus aureus = tested on: Staphylococcus aureus
Bacillus subtilis = tested on: Bacillus subtilis
[2] = tested on: Candida albicans F7-39/IDE99
Escherichia coli = tested on: Escherichia coli
Pseudomonas aeruginosa = tested on: Pseudomonas aeruginosa
[3] = tested on: Candida albicans ATCC 2002
[4] = tested on: Escherichia coli ATCC 25922
[5] = tested on: Pseudomonas aeruginosa CMCCB 10104
[6] = tested on: Staphylococcus aureus ATCC 25923
Escherichia coli W160-37 = tested on: Escherichia coli W160-37
[7] = tested on: Candida albicans NCYC 1467
[8] = tested on: Escherichia coli NCTC 10418
[9] = tested on: Pseudomonas aeruginosa ATCC 27853
[10] = tested on: Staphylococcus aureus NCTC 10788
[11] = tested on: Staphylococcus aureus NCTC 12493
Bacillus subtilis 168 = tested on: Bacillus subtilis 168
Escherichia coli B = tested on: Escherichia coli B

| MIC (Staphylococcus aureus) [µM] | MIC [3] [µM] | MIC [4] [µM] | MIC [5] [µM] | MIC [6] [µM] | SMILES | other results |
| --- | --- | --- | --- | --- | --- | --- |
| > 69.2 |  |  |  |  | CC[C@H](C)[C@H](NC(=O)[C@H](C)NC(=O)[C@H](CC(C)C)NC(=O)[C@H](CS)NC(=O)[C@@H](N)Cc1cnc[nH]1)C(=O)NCC(=O)N[C@@H](CCCN=C(N)N)C(=O)N[C@@H](CCCN=C(N)N)C(N)=O [HCLAIGRR] | MIC (Escherichia coli JM109): 25.9 µM; MIC [1]: 9.73 µM |
| 4.7 (≈ 7.09 µg/mL) |  |  |  |  | CC[C@H](C)[C@H](NC(=O)[C@H](Cc1cnc[nH]1)NC(=O)[C@H](CCCCN)NC(=O)[C@H](CC(C)C)NC(=O)[C@H](CC(C)C)NC(=O)[C@H](CO)NC(=O)[C@H](Cc1c[nH]c2ccccc12)NC(=O)[C@H](Cc1c[nH]c2ccccc12)NC(=O)[C@H](CCCCN)NC(=O)CN)C(=O)N[C@@H](CC(C)C)C(=O)N[C@@H](CCCCN)C(N)=O [GKWWSLLKHILK] | MIC (Bacillus subtilis): 0.6 µM (≈ 0.905 µg/mL); MIC [2]: 5.3 µM (≈ 7.99 µg/mL); MIC (Escherichia coli): 1.6 µM (≈ 2.41 µg/mL); MIC (Pseudomonas aeruginosa): 50 µM (≈ 75.4 µg/mL) |
|  |  |  |  |  | CC[C@H](C)[C@H](N)C(=O)N[C@@H](CC(C)C)C(=O)N1CCC[C@H]1C(=O)N[C@@H](Cc1c[nH]c2ccccc12)C(=O)N[C@@H](CCCCN)C(=O)N[C@@H](Cc1c[nH]c2ccccc12)C(=O)N1CCC[C@H]1C(=O)N[C@@H](Cc1ccccc1)C(=O)N[C@@H](Cc1ccccc1)C(=O)N1CCC[C@H]1C(=O)N[C@@H](Cc1c[nH]c2ccccc12)C(=O)N[C@@H](CCCN=C(N)N)C(=O)N[C@@H](CCCN=C(N)N)C(N)=O [ILPWKWPFFPWRR] | MIC (Escherichia coli JM109): 2 µM (≈ 3.66 µg/mL) |
|  | 25.1 (≈ 50 µg/mL) | 50.3 (≈ 100 µg/mL) | 12.6 (≈ 25 µg/mL) | 12.6 (≈ 25 µg/mL) | CC[C@H](C)[C@H](NC(=O)[C@H](Cc1ccccc1)NC(=O)[C@@H](N)CCCN=C(N)N)C(=O)N[C@@H](Cc1ccc(O)cc1)C(=O)N[C@@H](CCSC)C(=O)N[C@@H](CCCCN)C(=O)NCC(=O)N[C@@H](Cc1ccccc1)C(=O)NCC(=O)N[C@@H](CCCCN)C(=O)N1CCC[C@H]1C(=O)N[C@@H](CCCN=C(N)N)C(=O)N[C@@H](Cc1ccccc1)C(=O)NCC(=O)N[C@@H](CCCCN)C(=O)N[C@@H](CCCN=C(N)N)C(=O)O [RFIYMKGFGKPRFGKR] |  |
|  | 4.07 (≈ 15.8 µg/mL) | 2.04 (≈ 7.9 µg/mL) | 2.04 (≈ 7.9 µg/mL) | 2.04 (≈ 7.9 µg/mL) | CC[C@H](C)[C@H](NC(=O)[C@H](CC(C)C)NC(=O)[C@H](CCC(N)=O)NC(=O)[C@@H](NC(=O)[C@H](C)NC(=O)CNC(=O)[C@H](CCCCN)NC(=O)[C@H](CC(C)C)NC(=O)[C@H](CC(C)C)NC(=O)[C@@H](NC(=O)[C@H](Cc1ccccc1)NC(=O)[C@@H](NC(=O)CN)C(C)C)[C@@H](C)O)[C@@H](C)O)C(=O)NCC(=O)N[C@@H](CCCCN)C(=O)N[C@H](C(=O)N[C@@H](CC(C)C)C(=O)NCC(=O)N[C@@H](CCCCN)C(=O)N[C@@H](CCC(=O)O)C(=O)N[C@@H](CC(C)C)C(=O)NCC(=O)N[C@@H](CCCCN)C(=O)N[C@H](C(=O)NCC(=O)N[C@@H](CC(C)C)C(=O)N[C@@H](CCC(=O)O)C(=O)N[C@@H](CC(C)C)C(=O)N[C@@H](CCSC)C(=O)N[C@@H](C)C(=O)N[C@H]1CSSC[C@@H](C(=O)O)NC(=O)[C@H](CCC(N)=O)NC(=O)[C@H](CC(N)=O)NC(=O)[C@H]([C@@H](C)O)NC(=O)[C@H]([C@@H](C)CC)NC(=O)[C@H](CCCCN)NC1=O)[C@@H](C)O)[C@@H](C)O [GVFTLLKGATQLIGKTLGKELGKTGLELMACKITNQC] |  |
|  | 5.1 (≈ 13.1 µg/mL) | 5.1 (≈ 13.1 µg/mL) | 20.4 (≈ 52.4 µg/mL) | 10.2 (≈ 26.2 µg/mL) | CC[C@H](C)[C@H](N)C(=O)N[C@@H](CC(C)C)C(=O)N1CCC[C@H]1C(=O)N[C@@H](Cc1ccccc1)C(=O)N[C@H](C(=O)N[C@@H](C)C(=O)NCC(=O)N[C@H](C(=O)N[C@@H](C)C(=O)N[C@@H](C)C(=O)N[C@@H](CCC(=O)O)C(=O)N[C@@H](CCSC)C(=O)N[C@@H](CCSC)C(=O)N[C@@H](CCC(=O)O)C(=O)N[C@@H](Cc1cnc[nH]1)C(=O)N[C@H](C(=O)N[C@@H](Cc1ccc(O)cc1)C(=O)N[C@H]1CSSC[C@@H](C(=O)O)NC(=O)[C@H](CCCCN)NC(=O)[C@H](CCCCN)NC(=O)[C@H](CO)NC(=O)[C@H](C)NC(=O)[C@H](C)NC1=O)C(C)C)C(C)C)C(C)C [ILPFVAGVAAEMMEHVYCAASKKC] |  |
| 18.8 (≈ 33.8 µg/mL) |  |  |  |  | CC[C@H](C)[C@H](N)C(=O)N[C@H](C(=O)N[C@@H](CO)C(=O)N[C@H](C(=O)N[C@H](C(=O)NCC(=O)N[C@@H](CCCCN)C(=O)N[C@@H](CC(C)C)C(=O)N[C@H](C(=O)N[C@@H](CCCCN)C(=O)N[C@@H](Cc1c[nH]c2ccccc12)C(=O)N[C@H](C(=O)N[C@H](C(=O)N[C@@H](CC(=O)O)C(=O)N[C@H](C(=O)N[C@H](C(=O)O)C(C)C)[C@@H](C)O)[C@@H](C)CC)[C@@H](C)CC)C(C)C)[C@@H](C)CC)[C@@H](C)O)[C@@H](C)CC [IISTIGKLVKWIIDTV] | MIC (Escherichia coli W160-37): 8 µM (≈ 14.4 µg/mL) |
|  |  |  |  |  | CC[C@H](C)[C@H](NC(=O)CNC(=O)[C@@H](NC(=O)[C@H](C)NC(=O)[C@@H](NC(=O)[C@H](CCCCN)NC(=O)[C@@H]1CCCN1C(=O)[C@@H](NC(=O)[C@H](CC(C)C)NC(=O)[C@H](CO)NC(=O)[C@H](CC(C)C)NC(=O)[C@@H](N)Cc1ccccc1)[C@@H](C)CC)[C@@H](C)CC)[C@@H](C)O)C(=O)N[C@@H](C)C(=O)N[C@@H](C)C(=O)N[C@@H](CC(C)C)C(=O)N[C@@H](C)C(=O)N[C@@H](CCCCN)C(=O)N[C@@H](Cc1cnc[nH]1)C(=O)N[C@@H](CC(C)C)C(N)=O [FLSLIPKIATGIAALAKHL] | MIC [7]: 2 µM (≈ 3.95 µg/mL); MIC [8]: 8 µM (≈ 15.8 µg/mL); MIC [9]: 32 µM (≈ 63.2 µg/mL); MIC [10]: 2 µM (≈ 3.95 µg/mL); MIC [11]: 2 µM (≈ 3.95 µg/mL) |
|  | 1.15 (≈ 4.4 µg/mL) | 1.15 (≈ 4.4 µg/mL) | 0.573 (≈ 2.2 µg/mL) | 0.573 (≈ 2.2 µg/mL) | CC[C@H](C)[C@H](NC(=O)[C@H](CC(C)C)NC(=O)[C@H](CCCCN)NC(=O)[C@H](C)NC(=O)[C@H](C)NC(=O)CNC(=O)[C@H](CCCCN)NC(=O)[C@@H](NC(=O)[C@H](CC(C)C)NC(=O)[C@@H](NC(=O)[C@H](Cc1ccccc1)NC(=O)[C@H](CC(C)C)NC(=O)CN)[C@@H](C)O)[C@@H](C)CC)C(=O)NCC(=O)N[C@@H](CCCCN)C(=O)N[C@H](C(=O)N[C@H](C(=O)N[C@@H](C)C(=O)N[C@@H](CCCCN)C(=O)N[C@@H](CCC(=O)O)C(=O)N[C@@H](C)C(=O)NCC(=O)N[C@@H](CCCCN)C(=O)N[C@H](C(=O)NCC(=O)N[C@@H](CCCCN)C(=O)N[C@@H](CC(C)C)C(=O)N[C@@H](CCC(=O)O)C(=O)N[C@@H](CCSC)C(=O)N[C@@H](C)C(=O)N[C@H]1CSSC[C@@H](C(=O)O)NC(=O)[C@H](CCC(N)=O)NC(=O)[C@H](CC(N)=O)NC(=O)[C@H]([C@@H](C)O)NC(=O)[C@H]([C@@H](C)CC)NC(=O)[C@H](CCCCN)NC1=O)[C@@H](C)O)[C@@H](C)O)[C@@H](C)O [GLFTLIKGAAKLIGKTTAKEAGKTGKLEMACKITNQC] |  |
|  | 3.81 (≈ 9.79 µg/mL) | 3.81 (≈ 9.79 µg/mL) | 3.81 (≈ 9.79 µg/mL) | 1.91 (≈ 4.9 µg/mL) | CC[C@H](C)[C@H](N)C(=O)N[C@@H](CC(C)C)C(=O)N1CCC[C@H]1C(=O)N[C@@H](Cc1ccccc1)C(=O)N[C@H](C(=O)N[C@@H](C)C(=O)NCC(=O)N[C@H](C(=O)N[C@@H](C)C(=O)N[C@@H](C)C(=O)N[C@@H](CCSC)C(=O)N[C@@H](CCC(=O)O)C(=O)N[C@@H](CCSC)C(=O)N[C@@H](CCC(=O)O)C(=O)N[C@@H](Cc1cnc[nH]1)C(=O)N[C@H](C(=O)N[C@@H](Cc1ccc(O)cc1)C(=O)N[C@H]1CSSC[C@@H](C(=O)O)NC(=O)[C@H](CCCCN)NC(=O)[C@H](CCCCN)NC(=O)[C@H](CO)NC(=O)[C@H](C)NC(=O)[C@H](C)NC1=O)C(C)C)C(C)C)C(C)C [ILPFVAGVAAMEMEHVYCAASKKC] |  |
| 5.5 (≈ 7.89 µg/mL) |  |  |  |  | CC[C@H](C)[C@H](NC(=O)[C@H](Cc1cnc[nH]1)NC(=O)[C@H](CCCCN)NC(=O)[C@H](CC(C)C)NC(=O)[C@H](CC(C)C)NC(=O)[C@H](CO)NC(=O)[C@H](CC(C)C)NC(=O)[C@H](Cc1c[nH]c2ccccc12)NC(=O)[C@H](CCCCN)NC(=O)CN)C(=O)N[C@@H](CC(C)C)C(=O)N[C@@H](CCCCN)C(N)=O [GKWLSLLKHILK] | MIC (Bacillus subtilis 168): 0.9 µM (≈ 1.29 µg/mL); MIC [2]: 8.7 µM (≈ 12.5 µg/mL); MIC (Escherichia coli B): 1.8 µM (≈ 2.58 µg/mL); MIC (Pseudomonas aeruginosa): 31.7 µM (≈ 45.5 µg/mL) |

Reference: DBAASP
